Laboratory results taken from patent publication US11154569B2, “Ruthenium μ-nitrido complexes and their use as calcium uptake inhibitors” (CORNELL UNIVERSITY, priority 2018, dated 2021).
Numbering of substitutions follows the chain as printed.

Tests used:
[1] = target: T1, recombinant human MCU-NTD (residues 72-189) (Homo sapiens, UniProt Q8NE86); experiment: Interaction with recombinant MCU-NTD (NMR HSQC, SDS-PAGE); format: binding; details: for interaction with MCU-NTD in solution: cell-free, C-2 at 3-fold molar excess
T1 construct: recombinant human MCU-NTD (residues 72-189)
T1 sequence (Q8NE86 72-189): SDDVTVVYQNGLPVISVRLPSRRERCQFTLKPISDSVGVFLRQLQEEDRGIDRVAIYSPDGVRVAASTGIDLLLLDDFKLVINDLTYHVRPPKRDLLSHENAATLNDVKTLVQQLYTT
Source text: To further elucidate the potential interaction of C-2 with the MCU-NTD, the interaction between C-2 and the uniformly ^15N-labeled recombinant human MCU-NTD (residues 72-189) was investigated using solution nuclear magnetic resonance (NMR) spectroscopy.
To determine if the MCU-NTD remained intact upon treatment with C-2, the insoluble aggregate (Insol.+C-2) was resuspended in loading dye and the migration of the protein was compared to untreated soluble MCU-NTD (Sol.) by SDIS-PAGE analysis. […] The appearance of the trimer and higher order aggregates upon treatment with C-2 may indicate that the MCU-NTD conformation induced by C-2 is different from that of the native conformation. Similar MCU-NTD aggregation was observed when the MCU-NTD was treated with lower molar ratios (i.e. 1:2 and 1:1) of C-2.
The clustering of these perturbations could be a result of i) direct binding with the compound, ii) indirect effects of the lower soluble protein concentration shifting the self-association equilibrium, or iii) C-2-mediated modifications to the protein. […] Thus, the NTD may be a potent target for MCU inhibition that is only accessible to C-2 because of its enhanced membrane permeability when compared to Ru360.

MCU C97A mutant = target: T2, MCU C97A mutant (Homo sapiens, UniProt Q8NE86, C97A); experiment: mCa2+ uptake in permeabilized HEK293T cells expressing MCU C97A mutant; format: cell-based; details: C-2 10 nM, Ru360 500 nM
T2 construct: stably expressing Flag-tagged full-length wild-type MCU (MCU^WT) and the mutant C97A (MCU^C97A); Flag; expressed in transfected cells
T2 sequence (Q8NE86 51-351 C97A): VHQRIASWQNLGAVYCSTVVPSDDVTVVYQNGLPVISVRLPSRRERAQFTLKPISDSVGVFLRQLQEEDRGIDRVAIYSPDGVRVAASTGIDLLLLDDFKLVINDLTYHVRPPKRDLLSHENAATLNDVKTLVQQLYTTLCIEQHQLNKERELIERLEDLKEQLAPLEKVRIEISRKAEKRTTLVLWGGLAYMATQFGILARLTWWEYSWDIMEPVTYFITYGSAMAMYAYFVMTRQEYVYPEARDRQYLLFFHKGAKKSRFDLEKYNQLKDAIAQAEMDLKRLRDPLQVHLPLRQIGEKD
T2 sequence (Q9H4I9 48-107 partner limits assumed): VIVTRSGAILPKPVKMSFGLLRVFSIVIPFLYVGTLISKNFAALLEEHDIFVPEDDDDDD
Protocol: (§1) An equal number of IHEK293T (6×10^6 cells) were washed in Ca^2+ free PBS, pH 7.4, resuspended and permeabilized with 40 μg/ml digitonin in 1.5 ml of intracellular medium (ICM) composed of 120 mM KCl, 10 mM NaCl, 1 mM K—H2PO4, 20 mM HE PES-Tris, pH 7.2 and 2 μM thapsigargin to block the SERCA pump. All measurements were performed in the presence of 2 mM succinate. The permeabilized cells were loaded with JC-1 (800 nM) and Fura2-FF (0.5 μM), respectively. Fluorescence was monitored in a multi-wavelength excitation dual-wavelength emission fluorimeter. [Ca^2+]out is represented as the excitation ratio (340 nm/380 nm) of Fura2-FF/FA fluorescence and ΔΨm as the ratio of the fluorescence of J-aggregate (570 nm excitation/595 nm emission) and monomer (490 nm excitation/535 nm emission) forms of JC-1. A series of extra-mitochondrial Ca^2+ bolus (20 μM) was added and mitochondrial uncoupler, CCCP (2 jμM), were added at the indicated time points. All of the experiments were performed at 37° C. with constant stirring.
To determine if C-2 interacts with the NTD, HEK293T cells stably expressing Flag-tagged full-length wild-type MCU (MCU^WT) and the mutant C97A (MCU^C97A) were permeabilized, and mCa^2+ uptake was measured as above.

human MCU S259A mutant = target: T3, human MCU S259A mutant (Homo sapiens, UniProt Q8NE86, S259A); experiment: mCa2+ uptake in permeabilized HEK293T cells expressing MCU S259A mutant; format: cell-based; details: C-2 10 nM, Ru360 500 nM
T3 construct: stably expressing flag-tagged full-length human wild type MCU (MCU^WT) or the mutant S259A (MCU^S259A); Flag; expressed in transfected cells
T3 sequence (Q8NE86 51-351 S259A): T2 sequence (Q8NE86 51-351 C97A) with A47C, S209A
T3 sequence (Q9H4I9 48-107 partner limits assumed): T2 sequence (Q9H4I9 48-107 partner limits assumed)
Protocol: as §1
Having observed the high potency of C-2 compared to Ru360, the mechanism of action of C-2 was next investigated. […] HIEK293T cells stably expressing flag-tagged full-length human wild type MCU (MCU^WT) or the mutant S259A (MCU^S259A) were permeabilized and mCa^2+ uptake was measured as above.

mCa2+ efflux channels = experiment: Mitochondrial Ca2+ efflux in permeabilized HEK293T cells; format: cell-based, human; details: for effect on mCa2+ efflux: 1 μM added after 20 μM Ca2+ pulse
Protocol: as §1
FIG. 4D is a graph showing assessment of mitochondrial Ca^2+ influx and efflux rates. Permeabilized HEK293T cells were pulsed with 20 μM Ca^2+ at 350 s to measure mitochondrial Ca^2+ uptake, followed by the addition of the 1 μM C-2 or Ru360 at 550 s, 10 μM CGP37157 at 600 s, and 6 μM CCCP at 750 s. In FIG. 4D, a representative trace depicts the comparison of C-2 and Ru360. FIG. 4E is a bar chart showing quantitation of Ca^2+ influx rate. FIG. 4F is a bar chart showing quantification of Ca^2+ efflux rate after addition of C-2 or Ru360. FIG. 4G is a bar chart showing quantification of CCCP-induced release of accumulated mitochondrial Ca^2+. […] To further confirm the selectivity of C-2 for the MCU, mCa^2+ uptake, mCa^2+ efflux rates and matrix Ca^2+ levels were measured in permeabilized HEK293T cells before and after treatment with C-2 using the fluorescent Ca^2+ indicator Fura-2-FF. […] Ru360 or C-2 were next added to inhibit MCU-mediated Ca^2+ uptake and subsequently visualize [Ca^2+]m efflux (FIG. 4D).

Row | SMILES | SDS-PAGE of protein precipitate formed with MCU-NTD ([1]; Coomassie blue staining) | interaction with MCU-NTD in solution [1] | effect of MCU C97A mutation on MCU inhibition compared to MCU WT cells (MCU C97A mutant) | effect of MCU S259A mutation on MCU inhibition compared to MCU WT cells (human MCU S259A mutant) | effect on mCa2+ efflux (mCa2+ efflux channels) | change in activity upon treatment with CGP-37157 and CCCP (mCa2+ efflux channels; 10 μM CGP37157, 6 μM CCCP)
1 | N.N.N.N.N.N.N.N.[Cl-].[Cl-].[N-3].[Ru+4].[Ru+4] [C-2, [Ru2(μ-N)(NH3)8Cl2]Cl3] | distinct and systematic laddering corresponding to the presence of monomer, dimer, trimer, tetramer, and higher aggregate formation | rapid formation of insoluble precipitate | significantly reduced MCU inhibitory activity | almost no change in the inhibitory activity | do not affect mCa^2+ efflux channels | No change
2 | N.N.N.N.N.N.N.N.O=C[O-].O=C[O-].[O-2].[Ru+3].[Ru+4] [Ru360, reference compound] |  | interacts with the purified MCU-NTD in a cell-free system, giving rise to precipitation and systematic laddering | almost no effect on the activity | partial resistance to Ru360 inhibition | do not affect mCa^2+ efflux channels | 
